row,melting point [°C],SMILES
1,100 to 102,Cc1cc(NC(=O)OCC(F)(F)F)n(C)n1
2,189 to 191,COc1cc(C)cc(C(=O)O)c1O
3,112 to 114,O=Cc1ccccc1OCC(=O)N1CCCC1
4,198 to 200,O=C(C(=O)c1ccc(Cl)cc1)c1ccc(Cl)cc1
5,89 to 91,CCc1ccccc1NC(=O)CC(C)=O
6,122 to 124,Cc1nn(C)c(C(F)(F)Cl)c1C(=O)O
7,126 to 128,O=C(O)C1(c2ccc(F)cc2)CC1
8,77 to 79,CCOC(=O)c1oc2ccccc2c1CBr
9,171 to 173,Cc1ccc2nc(CO)cc(=O)n2c1
10,135 to 137,CCOC(=O)c1csc(Cc2ccc(NC(=O)OC(C)(C)C)cc2)n1
11,204 to 206,O=C(O)C=Cc1ccc(-n2cc(Br)cn2)c(F)c1
12,109 to 111,Cc1nc(C)n(Cc2cccc(N)c2)n1
13,169 to 171,Cc1c(C(=O)O)cccc1S(=O)(=O)Cl
14,133 to 135,Cc1cc(C)cc(N(CCC(=O)O)S(=O)(=O)c2ccc(Br)cc2)c1
15,152 to 154,CC(NC(=O)c1cccc(Cl)c1Cl)C(=O)O (stereo not given)
16,121 to 123,O=C(O)CCOc1ccccc1[N+](=O)[O-]
17,139 to 141,CNC(=O)NC(C)(C)C(=O)O
18,68 to 70,COC(=O)C(CC(C)C)NC(N)=O (stereo not given)
19,135 to 137,Cc1cc(C)cc(C=CC(=O)O)c1
20,182 to 184,O=C(O)c1cc(-c2cccc(Cl)c2)no1
21,181 to 183,O=C(O)C(c1ccccc1)N1CCc2ccccc21 (stereo not given)

row,melting point [°C],SMILES
1,164 to 166,O=C(O)C1=COCCO1
2,51 to 53,Cc1ccc(F)c(-n2nnnc2CCl)c1
3,152 to 154,COC(=O)C(Cc1c[nH]cn1)NC(=O)CCc1ccccc1 (stereo not given)
4,43 to 45,Nc1ccc(OCc2cccc(F)c2)c(F)c1
5,82 to 84,Nc1cc(Cl)c(OC(F)F)c(Cl)c1
6,69 to 71,COC(=O)c1cccc(C)c1C#N
7,145 to 147,Cc1nc(-c2ccccn2)nc(O)c1C
8,129 to 131,CC(=O)N1CCCC(C(=O)O)C1 (stereo not given)
9,74 to 76,CC(=O)c1c(C)nn(C(C)C)c1C
10,145 to 147,CC(=O)N1CCC(C(=O)O)C1 (stereo not given)
11,77 to 79,COC(=O)CCCCCNC(=O)c1ccsc1
12,250 to 252,O=C(O)c1c[nH]c2ccccc2c1=O
13,108 to 110,CC(=O)CC(=O)Nc1ccc(C)c(Cl)c1
14,53 to 55,CCOC(=O)C(=O)C=Cc1ccsc1
15,252 to 254,Cc1ccc(-c2n[nH]c(=O)c3ccccc23)cc1C
16,90 to 94,Cc1sc(N)nc1-c1cccc(Cl)c1
17,168 to 170,NC(=O)c1cc(N2CCCCC2)ccc1N
18,121 to 123,Cc1ccc(CC(=O)Nc2cccc(C(C)O)c2)cc1 (stereo not given)
19,138 to 140,O=C(O)CCc1nc(-c2ccccc2)no1
20,73 to 75,CCc1noc(CC)c1CC(=O)O
21,218 to 220,CS(=O)(=O)N1CCCc2cc(C(=O)O)ccc21

row,melting point [°C],SMILES
1,176 to 178,O=C(O)C1(c2ccc3c(c2)OCO3)CCCCC1
2,194 to 196,O=C(O)c1cc(Cl)c2cc(Cl)ccc2n1
3,155 to 157,O=C(O)CCCNc1nc(-c2ccccc2)cs1
4,244 to 246,Cc1sc2ncnc(N3CCC(C(=O)O)CC3)c2c1C
5,100 to 104,COc1cccc(CNC(=O)CCl)c1
6,130 to 132,COC(=O)C(Cc1c[nH]c2ccccc12)NC(=O)CCl (stereo not given)
7,144 to 146,CC(=O)c1cnc2cc(C)nn2c1C
8,85 to 87,O=C(O)CCSc1ccc(Cl)cc1
9,146 to 148,Cc1cccc(C)c1-n1nnnc1S
10,212 to 214,O=C(c1cccnc1)c1c[nH]c2ccccc12
11,179 to 181,O=C(O)c1cc(-c2cccnc2)on1
12,222 to 224,CC(=O)c1c[nH]c2cc(F)ccc12
13,158 to 160,COc1ccc(C)cc1-n1ccc(C(=O)O)n1
14,206 to 208,CCCNC(=O)c1ccccc1N
15,149 to 151,CC(=O)c1cc2ccccc2[nH]1
16,198 to 200,Cc1c(N)cccc1NC(=O)c1ccccc1I
17,108 to 110,Cc1csc(-c2cccc(O)c2)n1
18,101 to 103,COC(=O)C(=O)CC(=O)c1ccc(OC)cc1F
19,65 to 67,CC(C)(CO)N1C(=O)c2ccccc2C1=O
20,41 to 43,COCc1cccc(CNC(=O)CCl)c1
21,123 to 125,Cc1cc(OCC(=O)O)no1

row,melting point [°C],SMILES
1,65 to 67,CCc1ccc(C(C)CC(=O)O)cc1 (stereo not given)
2,222 to 224,Cc1ccc(-c2cc(C(=O)O)c3c(C)noc3n2)c(C)c1
3,221 to 223,Cn1cc(OCc2ccccc2)c(=O)cc1CO
4,170 to 172,O=Cc1cc(Br)ccc1OCC(=O)O
5,125 to 127,CC(=O)c1ccc(OCC(=O)N(C)C)cc1
6,139 to 141,NS(=O)(=O)c1ccc(F)c(C(=O)O)c1F
7,93 to 95,COc1ccc(Sc2ccc(N)cc2)cc1
8,218 to 220,Cc1cc(C(=O)CCl)c(C)n1CC(N)=O
9,205 to 207,CC1(C)SC[C@H](C(=O)O)NC1=O
10,99 to 101,NN=C(Nc1ccccc1)c1cc(F)cc(F)c1
11,180 to 182,COc1ccc(S(=O)(=O)N2CCOCC2)cc1NC(=O)CCl
12,145 to 147,O=C(O)Cn1c(-c2ccccc2)cc2ccccc21
13,58 to 64,O=C(O)Cn1ccc(C(F)(F)F)n1
14,124 to 126,Cc1cc(C(=O)N2CCCC2)ccc1N
15,210 to 212,Cc1cc(C(=O)O)c(C(=O)O)s1
16,93 to 97,CCc1ccc(OCC(=O)O)cc1
17,38 to 40,COCCOc1ccc(C(C)=O)cc1
18,136 to 138,O=C(O)C1CCCN(S(=O)(=O)c2cccs2)C1 (stereo not given)
19,140 to 142,CC(C)(C)OC(=O)NC1C2CCC(C2)C1C(=O)O (stereo not given)
20,211 to 213,O=C1CC(C(=O)O)c2ccccc2N1 (stereo not given)

# The next lines start with the molecule.
row,SMILES,melting point [°C]
1,Cc1ncc(CN2CCNCC2)s1,79 to 81
2,Cc1ccccc1NC(=O)CCl,75 to 77
3,Cc1nn(C)c(C)c1S(N)(=O)=O,213 to 215
4,Nc1c(NCCCO)c(=O)[nH]c(=O)n1Cc1ccccc1,155 to 157
5,O=C(O)CCCN1C(=O)CSC1=S,124 to 126
6,O=S(=O)(Nc1ccccc1Br)N1CCCC1,69 to 71
7,O=C(O)C1CCCCN1c1ncccn1 (stereo not given),156 to 158
8,NS(=O)(=O)c1cc([N+](=O)[O-])ccc1Cl,155 to 157
9,CSc1nc2[nH]cnc(=O)c2s1,269 to 271
10,O=C(CCl)NC(=O)Nc1ccc2c(c1)OCCCO2,110 to 112
11,CC(C)CN(C(=O)CCl)c1c(N)n(CC(C)C)c(=O)[nH]c1=O,153 to 155
12,O=S(=O)(Cl)N1CC2CCC1C2 (stereo not given),47 to 49
13,O=C1OC(CCl)CN1c1ccccc1 (stereo not given),103 to 105
14,Nc1ncc(Cc2ccc(Cl)cc2)s1,127 to 129
15,NC(=O)Nc1ccccc1[N+](=O)[O-],186 to 188
16,CC(C)CN1CCOC(CNC(=O)CCl)C1 (stereo not given),83 to 85
17,CC(C)N(C(C)C)S(=O)(=O)c1ccc(NN)nc1,159 to 161
18,Cc1nnc(NN)[nH]c1=O,237 to 239
19,CC1(c2cccc(C#N)c2)NC(=O)NC1=O (stereo not given),202 to 204
20,Fc1cccc(CBr)c1Cl,39 to 41
21,O=C1CNc2ccc(S(=O)(=O)N3CCCCC3)cc2N1,144 to 146

row,SMILES,melting point [°C]
1,O=C1c2ccccc2S(=O)(=O)N1CCl,145 to 147
2,O=C(Nc1ccc(F)cc1)C1CCc2ccccc2N1 (stereo not given),115 to 117
3,N#Cc1ccc(I)c(C(F)(F)F)c1,100 to 102
4,Nc1cccc2c1CN(c1nccs1)C2,119 to 121
5,NS(=O)(=O)CCc1ccccc1,122 to 124
6,Nc1cccc(CN2C(=O)CNC2=O)c1,159 to 161
7,O=C1NS(=O)(=O)c2ncccc21,199 to 201
8,ClCc1cc(Cl)cc2c1OCC2,46 to 48
9,CC(O)c1ccc2c(c1)Nc1ccccc1S2 (stereo not given),149 to 151
10,O=[N+]([O-])c1ccc(S(=O)(=O)Cl)cc1Br,59 to 61
11,Cc1ccc(S(=O)(=O)OCC2CCCO2)cc1 (stereo not given),43 to 45
12,OCC1Cc2cc(Br)ccc2O1 (stereo not given),63 to 65
13,NCc1cccnc1O,89 to 91
14,Nc1ncc(C(F)(F)F)cc1Cl,86 to 90
15,CC1(C)CC(=O)c2sc(N)nc2C1,212 to 214
16,O=C=Nc1ccc2c(c1)OCO2,48 to 51
17,CC1=NN(C2CCS(=O)(=O)C2)C(=O)C1 (stereo not given),185 to 187
18,O=C(O)CC1=NNC(=O)C1,195 to 197
19,NCCc1c[nH]c2cc(Cl)ccc12,104 to 106
20,OCCOC1CCNCC1,61 to 63
21,CS(=O)(=O)Nc1cccc(OCCN)c1,134 to 136

row,SMILES,melting point [°C]
1,CCN1CCCC1CN1CC(C(=O)O)CC1=O (stereo not given),166 to 168
2,N#Cc1cc(CBr)ccc1F,44 to 46
3,O=C1Nc2ccc(S(=O)(=O)Cl)cc2C1=O,184 to 186
4,Brc1ccccc1Oc1cccnn1,109 to 111
5,O=C(O)CNC(=O)NCC1CCCC1,138 to 140
6,Nc1nnc(-c2ccc(F)cc2)o1,246 to 248
7,CC(NS(C)(=O)=O)C(=O)NN (stereo not given),117 to 119
8,O=S(=O)(c1ccc(S)cc1)C(F)(F)F,116 to 118
9,CCC(N)=S,40 to 42
10,O=C(Nc1ccc2c(c1)OCCO2)OCC(F)(F)F,103 to 105
11,O=C(NCc1cccs1)c1ccc(-n2ccnc2S)cc1,195 to 197
12,CC(C)(C)OC(=O)NCC1CCCCC12NC(=O)NC2=O (stereo not given),229 to 231
13,O=C(CO)N1CCCC1,37 to 39
14,Cc1c(C(=O)O)cnn1C1CCOCC1,207 to 209
15,Sc1nc(/C=C/c2ccccc2)n[nH]1,277 to 279
16,Nc1[nH]ncc1[N+](=O)[O-],237 to 239
17,O=c1[nH]cnc2c(-c3ccccc3)nsc12,256 to 258
18,N#CC(O)c1ccc([N+](=O)[O-])cc1 (stereo not given),109 to 111
19,NS(=O)(=O)c1ccc(Cl)nc1,154 to 156
20,NCC(O)COc1ccc(F)cc1 (stereo not given),71 to 73

# Reference: a melting point compilation (Tetko et al.)
